# According to US12559769B2, “Methods and compositions for the activation of tumor cytotoxicity via human gamma-delta t-cells” (priority 2017, dated 2026):
# Test system: Vγ9Vδ2 T cells
# Test: Activation of Vγ9Vδ2 T cells (TNF-α, flow cytometry) by HepG2 liver carcinoma cells co-cultured with expanded PBMC
# Type: cell-based, human
# Procedure: HepG2 cells were transduced with LV-vector, LV-BTN3A3 (R381H), or LV-shFDPS-BTN3A3 (R381H). Three days after transduction, cells were treated with or without 1 μM zoledronic acid. After 24 hours, the transduced HepG2 cells were co-cultured with 5×10^5 PBMC cells and IL-2 in a round bottom 96 well plate for 4 hours. The PBMC cells were pre-stimulated with zoledronic acid and IL-2 for 11 days to expand Vγ9Vδ2 T cells. After staining for Vγ9Vδ2 and TNF-α using fluorophore-conjugated anti TCR-Vδ2 and anti-TNF-α antibody, cells were analyzed via flow cytometry. Live cells were gated, and Vδ2+ and TNF-α+cells were selected on a dot blot. The activated cytotoxic Vγ9Vδ2 T cells appeared in the upper right quadrant of flow cytograms. Without zoledronic acid, the percent of TNF-α expressing Vγ9Vδ2 T cells was 0.6% with LV-vector, 9.5% with BTN3A3 (R381H), and 13.2% with the combination of LV-shFDPS-BTN3A3 (R381H). With zoledronic acid, the percent of TNF-α expressing Vγ9Vδ2 T cells was 7.2% with LV-vector, 17.8% with BTN3A3 (R381H), and 30.1% with the combination of LV-shFDPS-BTN3A3 (R381H).
# HepG2 cells were transduced with LV-shFDPS or LV-shFDPS-IL-2. Three days after transduction, cells were treated with or without 1 μM zoledronic acid. After 24 hours, the transduced HepG2 cells were co-cultured with 5×10^5 PBMC cells and with or without IL-2 in a round bottom 96 well plate for 4 hours. The PBMC cells were pre-stimulated with zoledronic acid and IL-2 for 11 days to expand Vγ9Vδ2 T cells. After staining for Vγ9Vδ2 and TNF-α using fluorophore-conjugated anti TCR-Vδ2 and anti-TNF-α antibody, cells were analyzed via flow cytometry. Live cells were gated, and Vδ2+ and TNF-α+ cells were selected on a dot blot. The activated cytotoxic Vγ9Vδ2 T cells appeared in the upper right quadrant of flow cytograms. With only zoledronic acid, the percent of TNF-α expressing Vγ9Vδ2 T cells was 7.5% with LV-shFDPS and 20.1% with LV-shFDPS-IL-2. With zoledronic acid and IL-2, the percent of TNF-α expressing Vγ9Vδ2 T cells was 27.8% with LV-shFDPS and 24.7% with LV-shFDPS-IL-2.
# HepG2 liver carcinoma cells were transduced with Lv-shFDPS, Lv-FDPS-IL-15 (expressing both shRNAFDPS and the human cytokine interleukin 15) or Lv-control and cultured for 72 hours. Zoledronic acid (1 μM) was added to (1) cells transduced with Lv-shFDPS, (2) cells transduced with Lv-FDPS-IL-15, and (3) HepG2 cells transduced with Lv-control. Treated cells were cultured for 24 hours. Lv-shFDPS transduced cells, Lv-FDPS-IL-15 transduced cells, and Lv-control transduced cells were co-cultured with PBMC enriched for Vγ9Vδ2 cells plus a protein transport inhibitor (BD GolgiStop) for 4 hours. After 4 hours of stimulation, cells were collected and labeled with Vδ2 phycoerythrin (PE) and TNFαallophycocyanin (APC), and the labeled cells were analyzed by flow cytometry.
# HepG2 cells were transduced with LV-control or LV-FDPS shRNA #4 (SEQ ID NO: 4) or LV-GGPS1 shRNA #1 (SEQ ID NO: 70) for 3 days. Two days after transduction, cells were treated with or without 1 μM zoledronic acid. After 24 hours, the transduced HepG2 cells were co-cultured for 4 hours with 5×10^5 PBMC cells in a round bottom 96 well plate. The PBMC cells had been pre-stimulated with zoledronic acid plus IL-2 for at least 11 days to expand Vγ9Vδ2 T cells. After staining for Vγ9Vδ2 and TNF-α using fluorophore-conjugated anti TCR-Vδ2 and anti-TNF-α antibody, cells were analyzed via flow cytometry. Live cells were gated; Vδ2+ and TNF-α+ cells were identified on a dot blot. The activated cytotoxic Vγ9Vδ2 T cells appeared in the upper right quadrant of the flow cytograms. Without zoledronic acid, LV-control stimulated 0.36% of TNF-α expressing Vγ9Vδ2 T cells whereas LV-FDPS shRNA #4 (SEQ ID NO: 4) stimulated 0.9% and LV-GGPS1 #1 (SEQ ID NO: 70) shRNA stimulated 0.58%. […]
# [1] = Example 26, FIG. 30, LV-FDPS shRNA #4 transduced HepG2 cells, drug 1 μM, 24 hours
# [2] = Example 26, FIG. 30, LV-control transduced HepG2 cells, 1 μM, 24 hours, untreated 1.82%
SMILES,"percent of TNF-α expressing Vγ9Vδ2 T cells (Example 4, LV-vector (control) transduced HepG2 cells, 1 μM zoledronic acid)","percent of TNF-α expressing Vγ9Vδ2 T cells (Example 20, LV-control transduced HepG2 cells, 1 μM zoledronic acid)",percent of TNF-α expressing Vγ9Vδ2 T cells [1],percent of TNF-α expressing Vγ9Vδ2 T cells [2],"percent of TNF-α expressing Vγ9Vδ2 T cells (Example 26, FIG. 30, LV-FDPS shRNA #4 transduced HepG2 cells, drug 5 μM, 24 hours)","percent of TNF-α expressing Vγ9Vδ2 T cells (Example 26, FIG. 30, LV-control transduced HepG2 cells, 5 μM, 24 hours, untreated 1.82%)"
O=P(O)(O)C(O)(Cn1ccnc1)P(=O)(O)O [zoledronic acid],7.2%,6.88%,50.8%,3.02%,,
COC(=O)[C@H](CCSC)NC(=O)c1ccc(NC[C@@H](N)CS)cc1-c1ccccc1 [FT1277],,,2.69%,1.72%,,
C=C(CC[C@]12O[C@H](C(=O)O)[C@@](O)(C(=O)O)[C@](C(=O)O)(O1)[C@H](OC(=O)/C=C/[C@@H](C)C[C@@H](C)CC)[C@H]2O)[C@@H](OC(C)=O)[C@H](C)Cc1ccccc1 [zaragozic acid],,,,,2.82%,1.63%
